Results: PubChem BioAssay (NCI)
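Method: 48-hour compound exposure of cells in 96-well plates, five concentrations, linear interpolation of endpoints. TGI marks complete inhibition of growth.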

Tests used:
Test in all cases: NCI-60 cell line screen, 48 h
[1] = tested on: HCT-15 colon
[2] = tested on: HT29 colon
[3] = tested on: SN12C renal
[4] = tested on: MDA-MB-231 breast
[5] = tested on: OVCAR-3 ovarian
[6] = tested on: SK-MEL-28 melanoma
[7] = tested on: SF-295 CNS
[8] = tested on: MALME-3M melanoma
[9] = tested on: K-562 leukemia
[10] = tested on: RPMI-8226 leukemia
[11] = tested on: CAKI-1 renal
[12] = tested on: SW-620 colon
[13] = tested on: SNB-19 CNS
[14] = tested on: SR leukemia
[15] = tested on: SK-OV-3 ovarian
[16] = tested on: HL-60(TB) leukemia
[17] = tested on: DU-145 prostate
[18] = tested on: SK-MEL-5 melanoma
[19] = tested on: SNB-75 CNS
[20] = tested on: KM12 colon
[21] = tested on: A549 NSCLC
[22] = tested on: ACHN renal
[23] = tested on: NCI-H226 lung
[24] = tested on: OVCAR-8 ovarian
[25] = tested on: M14 melanoma
[26] = tested on: SK-MEL-2 melanoma
[27] = tested on: COLO 205 colon
[28] = tested on: MDA-MB-435
[29] = tested on: RXF 393 renal
[30] = tested on: MOLT-4 leukemia
[31] = tested on: IGROV1 ovarian
[32] = tested on: NCI-H460 lung
[33] = tested on: NCI/ADR-RES ovarian
[34] = tested on: CCRF-CEM leukemia
[35] = tested on: BT-549 breast
[36] = tested on: SF-539 CNS
[37] = tested on: OVCAR-5 ovarian
[38] = tested on: HS 578T breast
[39] = tested on: TK-10 renal
[40] = tested on: EKVX NSCLC
[41] = tested on: A498 renal
[42] = tested on: MCF7 breast
[43] = tested on: PC-3 prostate
[44] = tested on: NCI-H522 lung
[45] = tested on: OVCAR-4 ovarian
[46] = tested on: UO-31 renal
[47] = tested on: HOP-62 NSCLC
[48] = tested on: HCT-116 colon
[49] = tested on: MDA-N
[50] = tested on: HCC-2998 colon
[51] = tested on: SF-268 CNS
[52] = tested on: NCI-H23 lung
[53] = tested on: UACC-62 melanoma
[54] = tested on: U251 CNS
[55] = tested on: T-47D breast
[56] = tested on: HOP-92 NSCLC
[57] = tested on: 786-0 renal
[58] = tested on: UACC-257 melanoma
[59] = tested on: LOX IMVI melanoma

**Q.** What does the source list for `CC(C)(Oc1ccc(-c2cccc3ccccc23)cc1)C(=O)O`?
**A.** TGI [1]: > 100 µM; TGI [2]: > 100 µM; TGI [3]: > 100 µM; TGI [4]: > 100 µM; TGI [5]: > 100 µM; TGI [6]: > 100 µM; TGI [7]: > 100 µM; TGI [8]: > 100 µM; TGI [9]: > 100 µM; TGI [10]: > 100 µM; TGI [11]: > 100 µM; TGI [12]: > 100 µM; TGI [13]: > 100 µM; TGI [14]: > 100 µM; TGI [15]: > 100 µM; TGI [16]: 30.1 µM; TGI [17]: > 100 µM; TGI [18]: > 100 µM; TGI [19]: > 100 µM; TGI [20]: > 100 µM; TGI [21]: > 100 µM; TGI [22]: > 100 µM; TGI [23]: > 100 µM; TGI [24]: > 100 µM; TGI [25]: > 100 µM; TGI [26]: > 100 µM; TGI [27]: > 100 µM; TGI [28]: > 100 µM; TGI [29]: > 100 µM; TGI [30]: > 100 µM; TGI [31]: > 100 µM; TGI [32]: > 100 µM; TGI [33]: > 100 µM; TGI [34]: > 100 µM; TGI [35]: > 100 µM; TGI [36]: > 100 µM; TGI [37]: > 100 µM; TGI [38]: > 100 µM; TGI [39]: > 100 µM; TGI [40]: > 100 µM; TGI [41]: > 100 µM; TGI [42]: > 100 µM; TGI [43]: > 100 µM; TGI [44]: > 100 µM; TGI [45]: > 100 µM; TGI [46]: > 100 µM; TGI [47]: > 100 µM; TGI [48]: > 100 µM; TGI [49]: > 100 µM; TGI [50]: > 100 µM; TGI [51]: > 100 µM; TGI [52]: > 100 µM; TGI [53]: > 100 µM; TGI [54]: > 100 µM; TGI [55]: > 100 µM; TGI [56]: > 100 µM; TGI [57]: > 100 µM; TGI [58]: > 100 µM

**Q.** Which results are given for `C=C1C(=O)OC2CC(C)C(/C=C/C(C)=O)=CCC12` (stereo unspecified)?
**A.** TGI [1]: > 100 µM; TGI [2]: > 100 µM; TGI [3]: > 100 µM; TGI [59]: > 100 µM; TGI [4]: > 100 µM; TGI [5]: > 100 µM; TGI [6]: > 100 µM; TGI [7]: > 100 µM; TGI [8]: 89.4 µM; TGI [9]: > 100 µM; TGI [10]: > 100 µM; TGI [11]: > 100 µM; TGI [12]: > 100 µM; TGI [13]: > 100 µM; TGI [14]: > 100 µM; TGI [15]: > 100 µM; TGI [16]: > 100 µM; TGI [17]: > 100 µM; TGI [18]: > 100 µM; TGI [19]: > 100 µM; TGI [20]: > 100 µM; TGI [21]: > 100 µM; TGI [22]: > 100 µM; TGI [23]: > 100 µM; TGI [24]: > 100 µM; TGI [25]: > 100 µM; TGI [26]: > 100 µM; TGI [27]: > 100 µM; TGI [28]: > 100 µM; TGI [29]: > 100 µM; TGI [30]: > 100 µM; TGI [31]: > 100 µM; TGI [32]: > 100 µM; TGI [33]: > 100 µM; TGI [34]: > 100 µM; TGI [35]: > 100 µM; TGI [36]: > 100 µM; TGI [37]: > 100 µM; TGI [38]: > 100 µM; TGI [39]: > 100 µM; TGI [40]: > 100 µM; TGI [41]: > 100 µM; TGI [42]: > 100 µM; TGI [43]: > 100 µM; TGI [44]: > 100 µM; TGI [45]: > 100 µM; TGI [47]: > 100 µM; TGI [48]: > 100 µM; TGI [49]: > 100 µM; TGI [50]: > 100 µM; TGI [51]: > 100 µM; TGI [52]: > 100 µM; TGI [53]: > 100 µM; TGI [54]: > 100 µM; TGI [55]: > 100 µM; TGI [56]: > 100 µM; TGI [57]: > 100 µM; TGI [58]: > 100 µM
